Data on 14 molecules can be found in publication PMC5081312, “Antifouling phenyl ethers and other compounds from the invertebrates and their symbiotic fungi collected from the South China Sea” (AMB Express, 2016).

The LC50 is the concentration lethal to half of the exposed cells or organisms. A higher LC50 goes with lower toxicity. In general, EC50 refers to the midpoint of the concentration-response curve.

The series has as its system cyprids of barnacle B. amphitrite. Briefly: Anti-larval settlement bioassay (antifouling activity and larval toxicity). It counts as in vivo. Conditions: for LC50/EC50 ratio (therapeutic ratio): B. amphitrite cyprids, ratio >15 considered non-toxic; for LC50 / EC50: cyprids of B. amphitrite, 48 h at 28 °C; for LC50: concentration where 50% of larvae were dead; for EC50: concentration where 50% of larvae were inhibited to settle vs negative control, read-out: EC50 (larval settlement inhibition); for inhibition of larval settlement in preliminary screening: B. amphitrite, at 25.0 μg ml^−1. As for the experimental part:
The newly released nauplii were screened with the aperture of 90 μm. The newly released nauplii were raised in filtered seawater (FSW) at 28 °C with mild aeration and fed with Chaetoceros gracilis Schutt at 1 × 10^6 cells ml^−1. The nauplius larvae transformed into cyprids (ready to attach and metamorphose) after 3.5 days. Newly transformed cyprids were kept in filtered seawater at 4 °C overnight before being used in the anti-larval settlement bioassay.
The antifouling activity was evaluated as larval settlement inhibition against the cyprids of barnacle B. amphitrite using 24-well polystyrene plates (Nunc, Naperville, CA, USA). Each compound was dissolved in a stock solution of DMSO with the concentration of 50 mg ml^−1, and then diluted 1000 times with FSW to 50 μg ml^−1. The compound was further transferred into FSW to make up the following test solution with the concentrations ranging from 25 to 0.50 μg ml^−1. One millilitre of the test solution and 16–20 larvae were allocated to each well of the 24-well plate. Each concentration had three replicate wells. The plates were cultivated in darkness for 48 h at 28 °C. The effects of the test compounds against the larvae settlement were determined by examining the plates under a dissecting microscope to check for (1) settled larvae (attached and metamorphosed), (2) swimming larvae, as well as (3) any possible toxic effects of the treatments (dead and paralyzed). The number of the settled larvae was expressed as a percentage of the total number of larvae per well. Each compound was tested by triplicate experiments using three different batches of larvae.
The EC50 and LC50 values of each compound were calculated according to the records of anti-larval settlement experiments. […] Then a concentration–response curve was plotted and a tread line was set up.

“1-Formyl-4-methyl-7-isopropylazulene [compound 17]”: the “LC50/EC50 ratio (therapeutic ratio)” value is recorded as >16.1, the LC50 was > 236 µM and the half-maximal effective concentration (EC50) amounted to 14.7 µM.

For the molecule `CC(C)C(C)CCC(C)C1CCC(C2=CC(O)C3CC(O)CCC3(C)C2=O)C1(C)CCO` (mixture of isomers) [compound 24, (24R)-and(24S)-3β,6α,11-Trihydroxy-methyl-9,11-seco-5α-cholest-7-en-9-one], the LC50 was > 112 µM and the EC50 is > 55.8 µM.

`CC1=CC(=O)c2c1cc(C(C)C)c(C=O)c2C` [compound 19, 3,8-Dimethyl-5-isopropyl-6-formylindenone]: the LC50 is > 219 µM and the EC50 is > 110 µM.

For `CC1=CC(=O)c2c(C)cc(C(=O)C(C)C)cc21` [compound 20, Ochracenoid B], the 50% lethal concentration (LC50) is > 219 µM and the EC50 is > 110 µM.

Turning to `CC(C)CCC(C)C1CCC(C2=CC(O)C3CC(O)CCC3(C)C2=O)C1(C)CCO` (stereo not drawn) [compound 23, 3β,6α,11-Trihydroxy-24-nor-9,11-seco-5α-cholest-7-en-9-one], the “inhibition of larval settlement in preliminary screening” value (from here on “inhibition of larval settlement”) was “completely inhibited”, the LC50 is 59.5 µM and the EC50 came out at 10.7 µM.

As for `CC(C)C=CC(C)C1CCC(C2=CC(O)C3CC(O)CCC3(C)C2=O)C1(C)CCO` (stereo not drawn) [compound 25, (22E)-3β,6α,11-Trihydroxy-24-nor-9,11-seco-5α-cholesta-7,22-dien-9-one], the “inhibition of larval settlement” value is given as “completely inhibited”, the LC50 was 59.8 µM and the concentration for a half-maximal effect (EC50) was 29.9 µM.

As to `CC(C)CCCC(C)C1CCC(C2=CC(O)C3CC(O)CCC3(C)C2=O)C1(C)CCO` (stereo not drawn) [compound 26, 3β,6α,11-Trihydroxy-9,11-seco-5α-cholest-7-en-9-one], the “inhibition of larval settlement” value is “completely inhibited”, the LC50 worked out at 57.6 µM and the EC50 was 28.6 µM.

On to `C=C(CCC(C)C1CCC(C2=CC(O)C3CC(O)CCC3(C)C2=O)C1(C)CCO)C(C)C` (stereo not drawn) [compound 27, 3β,6α,11-Trihydroxy-9,11-seco-5α-cholesta-7,24(28)-dien-9-one], for which the 50% lethal concentration (LC50) was > 56.1 µM and the EC50 is > 56.1 µM.

For `CC(C)C(C)C=CC(C)C1CCC(C2=CC(O)C3CC(O)CCC3(C)C2=O)C1(C)CCO` [compound 28, (22E,24R)-3β,6α,11-trihydroxy-24-Methyl-9,11-seco-5α-cholesta-7,22-dien-9-one], the “LC50/EC50 ratio (therapeutic ratio)” value is >1.25, the LC50 is > 56.1 µM and the EC50 was determined as 44.8 µM.

For the molecule `CC(C)CC=CC(C)C1CCC(C2=CC(O)C3CC(O)CCC3(C)C2=O)C1(C)CCO` (stereo not drawn) [compound 29, (22E)-3β,6α,11-Trihydroxy-9,11-seco-5α-cholesta-7,22-dien-9-one], the LC50 was found to be 57.9 µM and the EC50 came to 14.7 µM.

For `CC(=O)OCCC1(C)C(C2=CC(OC(C)=O)C3CC(O)CCC3(C)C2=O)CCC1C(C)C=CCC(C)C` (stereo not drawn) [compound 30, (22E)-6,11-Diacetoxy-3-hydroxy-9,11-seco-5α-cholesta-7,22-dien-9-one], the “LC50/EC50 ratio (therapeutic ratio)” value is given as 16.1, the LC50 was found to be 96.8 µM and the EC50 came to 6.01 µM.

`CC(=O)OCCC1(C)C(C2=CC(OC(C)=O)C3CC(OC(C)=O)CCC3(C)C2=O)CCC1C(C)C=CCC(C)C` (stereo not drawn) [compound 31, (22E)-3,6,11-Triacetoxy-9,11-seco-5α-cholesta-7,22-dien-9-one]: the “LC50/EC50 ratio (therapeutic ratio)” value is recorded as 8.00, the LC50 worked out at 96.8 µM and the EC50 is 12.1 µM.

On to `C[C@]12CCC[C@H](O1)c1c(cc3c(c1O)C(=O)c1c(O)cc(O)cc1C3=O)O2` [compound 32, Averufin], for which the “LC50/EC50 ratio (therapeutic ratio)” value is >14.7, the LC50 was > 136 µM and the EC50 was 9.27 µM.

In the case of `COc1cc(O)cc2c1C(=O)c1c(cc3c(c1O)[C@H]1O[C@](C)(CC[C@@H]1O)O3)C2=O` [compound 33, 8-O-methylnidurufin], the “LC50/EC50 ratio (therapeutic ratio)” value is >8.75, the LC50 was > 126 µM and the EC50 stood at 14.4 µM.
